For orientation: half-life means the time needed for the level to fall by half in the phase considered. The IC50 is the concentration needed to halve the response being measured.

These results are taken from ChEMBL document CHEMBL4823254, “Tetrahydroquinoline-Capped Histone Deacetylase 6 Inhibitor SW-101 Ameliorates Pathological Phenotypes in a Charcot-Marie-Tooth Type 2A Mouse Model” (J Med Chem, 2021).

Data set [1] concerns the target T1, Protein deacetylase HDAC6 (Mus musculus) (UniProt Q9Z2V5).
T1 sequence (whole entry): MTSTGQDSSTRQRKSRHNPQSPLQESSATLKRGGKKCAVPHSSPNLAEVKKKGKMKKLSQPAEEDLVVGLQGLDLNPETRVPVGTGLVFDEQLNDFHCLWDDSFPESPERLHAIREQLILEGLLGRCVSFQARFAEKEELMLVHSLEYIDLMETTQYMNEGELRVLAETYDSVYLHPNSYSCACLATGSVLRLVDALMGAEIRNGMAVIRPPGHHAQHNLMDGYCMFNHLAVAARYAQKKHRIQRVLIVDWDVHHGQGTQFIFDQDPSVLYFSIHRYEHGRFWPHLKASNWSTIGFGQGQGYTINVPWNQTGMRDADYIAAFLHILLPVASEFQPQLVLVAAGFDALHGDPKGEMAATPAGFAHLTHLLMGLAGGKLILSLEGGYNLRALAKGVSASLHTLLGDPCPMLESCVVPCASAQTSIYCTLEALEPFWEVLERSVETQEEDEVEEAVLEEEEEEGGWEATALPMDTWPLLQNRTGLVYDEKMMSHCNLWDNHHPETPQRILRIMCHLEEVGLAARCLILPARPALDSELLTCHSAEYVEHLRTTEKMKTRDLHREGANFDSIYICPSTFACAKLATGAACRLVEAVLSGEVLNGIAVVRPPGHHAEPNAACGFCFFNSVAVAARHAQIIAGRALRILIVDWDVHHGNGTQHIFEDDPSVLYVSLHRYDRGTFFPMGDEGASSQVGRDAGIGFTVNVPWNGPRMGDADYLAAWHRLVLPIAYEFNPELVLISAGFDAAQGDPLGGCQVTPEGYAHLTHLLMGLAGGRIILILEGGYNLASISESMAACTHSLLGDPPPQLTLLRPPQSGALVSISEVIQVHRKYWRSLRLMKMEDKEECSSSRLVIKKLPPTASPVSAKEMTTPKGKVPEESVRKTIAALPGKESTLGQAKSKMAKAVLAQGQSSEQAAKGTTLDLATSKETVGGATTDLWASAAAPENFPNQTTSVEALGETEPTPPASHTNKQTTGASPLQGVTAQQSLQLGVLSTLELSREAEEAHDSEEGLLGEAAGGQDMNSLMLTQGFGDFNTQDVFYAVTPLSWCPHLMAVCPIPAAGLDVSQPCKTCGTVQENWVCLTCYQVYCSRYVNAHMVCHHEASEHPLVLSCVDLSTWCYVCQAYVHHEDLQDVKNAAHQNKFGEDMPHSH
Briefly: Inhibition of HDAC6 in mouse Neuro2a cells assessed as fold increase in ratio of acetylated alpha-tubulin to alpha tubulin at 0.01 uM incubated for overnight by Western blot analysis. Type of data set: cell-based. The following applies: time 12.0 hrs.

Data set [2] has as its target T1, Protein deacetylase HDAC6 (Mus musculus). Briefly: In vivo inhibition of HDAC6 in wild type mouse assessed as increase in alpha-tubulin acetylation in sciatic nerve tissue at 20 mg/kg, ip administered for 12 hrs by immunoblot analysis relative to control. Type of data set: functional, organism-based. The arrangement: scale not given: the % may be the effect or the level left. (In western blotting, separated proteins are transferred to a membrane and probed.)

Data set [3] can be described thus: Half life in liver microsomes. It is filed as ADME, Microsome. A general note: Liver microsomes are vesicles of endoplasmic reticulum, rich in cytochrome P450 enzymes.
A short description of data set [4]: Half life in hepatocytes. It is filed as ADME, cell-based, Hepatocyte.
Data set [5] addresses T1, Protein deacetylase HDAC6 (Mus musculus). The data set is described as follows: Inhibition of HDAC6 in mouse Neuro2a cells assessed as fold increase in ratio of acetylated alpha-tubulin to alpha tubulin at 1 uM incubated for overnight by Western blot analysis. Type of data set: cell-based. The following applies: time 12.0 hrs.
Data set [6] is described as follows: Half life in CD1 mouse pooled liver microsomes assessed as parent compound remaining measured up to 60 mins in presence of NADPH by LC-MS/MS analysis. Type of data set: ADME, Microsome. The following applies: CD1, mouse, pooled liver microsomes.
A short description of data set [7]: Stability in CD1 mouse pooled liver microsomes assessed as parent compound remaining measured at 60 mins in presence of NADPH by LC-MS/MS analysis. The settings on record: CD1, mouse, pooled liver microsomes, read-out: Stabilty. Type of data set: ADME, Microsome.
The target of the next data set is Histone deacetylase 5 (Homo sapiens, UniProt Q9UQL6). Briefly: Inhibition of recombinant human HDAC5 using Boc-Lys(TFA)-AMC as substrate preincubated for 10 mins followed by substrate addition and measured after 30 mins by fluorescence-based assay.
Chain of Histone deacetylase 5 (Q9UQL6 whole entry): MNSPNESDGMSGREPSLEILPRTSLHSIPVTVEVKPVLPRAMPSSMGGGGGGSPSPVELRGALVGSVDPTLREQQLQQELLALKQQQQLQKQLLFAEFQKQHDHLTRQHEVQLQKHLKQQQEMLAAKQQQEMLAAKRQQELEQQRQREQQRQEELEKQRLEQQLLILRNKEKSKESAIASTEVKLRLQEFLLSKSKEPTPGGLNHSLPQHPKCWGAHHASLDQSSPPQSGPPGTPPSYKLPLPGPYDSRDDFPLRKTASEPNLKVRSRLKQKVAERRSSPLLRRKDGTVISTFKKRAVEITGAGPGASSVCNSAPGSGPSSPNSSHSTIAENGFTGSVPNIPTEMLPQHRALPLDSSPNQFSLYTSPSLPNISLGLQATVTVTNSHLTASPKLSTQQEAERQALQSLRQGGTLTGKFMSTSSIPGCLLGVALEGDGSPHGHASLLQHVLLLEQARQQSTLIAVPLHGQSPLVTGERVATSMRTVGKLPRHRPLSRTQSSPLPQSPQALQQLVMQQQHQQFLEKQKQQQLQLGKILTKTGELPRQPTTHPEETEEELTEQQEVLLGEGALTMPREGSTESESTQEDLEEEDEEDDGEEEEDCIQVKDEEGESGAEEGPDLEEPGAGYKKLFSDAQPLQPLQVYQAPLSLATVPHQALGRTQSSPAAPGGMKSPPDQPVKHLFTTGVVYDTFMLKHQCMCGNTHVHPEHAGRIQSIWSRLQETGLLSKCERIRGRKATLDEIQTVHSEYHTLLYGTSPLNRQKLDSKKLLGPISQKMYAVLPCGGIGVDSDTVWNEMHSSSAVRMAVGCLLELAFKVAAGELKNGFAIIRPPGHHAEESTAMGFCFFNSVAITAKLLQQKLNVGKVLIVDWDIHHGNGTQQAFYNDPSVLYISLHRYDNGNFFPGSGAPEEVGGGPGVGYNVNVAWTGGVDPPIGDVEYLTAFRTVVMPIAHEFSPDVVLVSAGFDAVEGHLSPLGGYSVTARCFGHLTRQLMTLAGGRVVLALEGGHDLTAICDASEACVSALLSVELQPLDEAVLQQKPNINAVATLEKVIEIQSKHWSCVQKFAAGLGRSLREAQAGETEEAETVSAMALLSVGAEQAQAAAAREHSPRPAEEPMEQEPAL
The target of another data set is Histone deacetylase 2 (Homo sapiens, UniProt Q92769). Briefly: Inhibition of recombinant human HDAC2 using Ac-GAK(Ac)-AMC as substrate preincubated for 10 mins followed by substrate addition and measured after 30 mins by fluorescence-based assay.
Chain of Histone deacetylase 2 (Q92769 whole entry): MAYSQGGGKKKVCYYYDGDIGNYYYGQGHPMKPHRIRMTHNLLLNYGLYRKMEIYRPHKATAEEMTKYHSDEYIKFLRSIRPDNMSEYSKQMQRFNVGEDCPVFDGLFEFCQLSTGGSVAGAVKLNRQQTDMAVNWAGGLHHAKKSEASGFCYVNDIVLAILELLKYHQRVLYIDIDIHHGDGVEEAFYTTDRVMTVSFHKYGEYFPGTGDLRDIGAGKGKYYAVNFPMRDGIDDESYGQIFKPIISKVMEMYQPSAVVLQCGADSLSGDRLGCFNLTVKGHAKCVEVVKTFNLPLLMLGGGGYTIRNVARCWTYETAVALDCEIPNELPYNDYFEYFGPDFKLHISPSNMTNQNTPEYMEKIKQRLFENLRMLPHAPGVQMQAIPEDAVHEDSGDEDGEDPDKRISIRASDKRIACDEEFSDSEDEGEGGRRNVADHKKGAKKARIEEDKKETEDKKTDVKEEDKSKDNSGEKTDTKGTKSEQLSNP
A further data set addresses Histone deacetylase 4 (Homo sapiens, UniProt P56524). Briefly: Inhibition of recombinant human HDAC4 using Boc-Lys(TFA)-AMC as substrate preincubated for 10 mins followed by substrate addition and measured after 30 mins by fluorescence-based assay.
Data set [8] is described as follows: Half life in human pooled liver microsomes assessed as parent compound remaining measured up to 60 mins in presence of NADPH by LC-MS/MS analysis. The settings on record: microsomes, 1 h. It is filed as ADME, Microsome.
The target of the next data set is T2, Histone deacetylase 8 (Homo sapiens, UniProt Q9BY41).
T2 sequence (Q9BY41 whole entry): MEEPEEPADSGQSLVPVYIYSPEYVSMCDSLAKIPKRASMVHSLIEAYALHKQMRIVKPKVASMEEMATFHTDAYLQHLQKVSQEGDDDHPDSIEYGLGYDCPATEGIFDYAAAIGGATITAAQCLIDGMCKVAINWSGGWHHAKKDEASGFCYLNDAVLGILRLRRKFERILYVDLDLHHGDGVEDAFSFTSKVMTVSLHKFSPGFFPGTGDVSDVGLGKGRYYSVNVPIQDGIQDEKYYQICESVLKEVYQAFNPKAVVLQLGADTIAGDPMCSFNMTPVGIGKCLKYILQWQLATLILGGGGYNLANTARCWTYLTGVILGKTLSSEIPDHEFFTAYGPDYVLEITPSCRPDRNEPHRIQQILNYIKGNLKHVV

Another data set addresses T3, Histone deacetylase 7 (Homo sapiens, UniProt Q8WUI4).
T3 sequence (Q8WUI4 whole entry): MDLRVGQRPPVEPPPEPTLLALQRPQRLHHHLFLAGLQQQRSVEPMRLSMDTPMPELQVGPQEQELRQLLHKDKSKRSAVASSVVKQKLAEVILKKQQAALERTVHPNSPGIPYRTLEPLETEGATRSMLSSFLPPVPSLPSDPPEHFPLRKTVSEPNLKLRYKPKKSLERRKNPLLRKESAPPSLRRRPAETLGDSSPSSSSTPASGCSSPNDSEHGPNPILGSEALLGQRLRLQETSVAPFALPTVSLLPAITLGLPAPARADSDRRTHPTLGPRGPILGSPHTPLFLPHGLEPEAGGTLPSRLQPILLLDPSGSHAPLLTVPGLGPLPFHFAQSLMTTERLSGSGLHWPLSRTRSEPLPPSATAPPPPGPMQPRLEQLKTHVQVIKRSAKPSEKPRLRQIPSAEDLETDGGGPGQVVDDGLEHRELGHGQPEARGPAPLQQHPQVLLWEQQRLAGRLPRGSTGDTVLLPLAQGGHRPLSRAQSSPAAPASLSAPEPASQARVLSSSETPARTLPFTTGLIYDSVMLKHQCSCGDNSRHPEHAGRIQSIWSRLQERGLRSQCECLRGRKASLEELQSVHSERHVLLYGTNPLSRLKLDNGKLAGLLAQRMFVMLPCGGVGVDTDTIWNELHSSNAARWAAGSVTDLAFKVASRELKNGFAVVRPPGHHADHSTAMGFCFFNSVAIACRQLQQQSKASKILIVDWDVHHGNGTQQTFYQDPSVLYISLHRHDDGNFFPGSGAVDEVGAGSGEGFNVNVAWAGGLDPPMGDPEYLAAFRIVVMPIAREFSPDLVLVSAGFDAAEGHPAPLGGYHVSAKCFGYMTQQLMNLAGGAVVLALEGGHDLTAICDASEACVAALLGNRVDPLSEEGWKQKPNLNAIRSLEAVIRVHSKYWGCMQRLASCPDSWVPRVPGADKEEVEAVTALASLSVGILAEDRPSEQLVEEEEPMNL

Another data set concerns the target Histone deacetylase 3 (Homo sapiens, UniProt O15379). Briefly: Inhibition of recombinant human HDAC3 using Ac-GAK(Ac)-AMC as substrate preincubated for 10 mins followed by substrate addition and measured after 30 mins by fluorescence-based assay.
For a further data set, the target named is Histone deacetylase 9 (Homo sapiens, UniProt Q9UKV0). The data set is described as follows: Inhibition of recombinant human HDAC9 using Boc-Lys(TFA)-AMC as substrate preincubated for 10 mins followed by substrate addition and measured after 30 mins by fluorescence-based assay.
Chain of Histone deacetylase 9 (Q9UKV0 whole entry): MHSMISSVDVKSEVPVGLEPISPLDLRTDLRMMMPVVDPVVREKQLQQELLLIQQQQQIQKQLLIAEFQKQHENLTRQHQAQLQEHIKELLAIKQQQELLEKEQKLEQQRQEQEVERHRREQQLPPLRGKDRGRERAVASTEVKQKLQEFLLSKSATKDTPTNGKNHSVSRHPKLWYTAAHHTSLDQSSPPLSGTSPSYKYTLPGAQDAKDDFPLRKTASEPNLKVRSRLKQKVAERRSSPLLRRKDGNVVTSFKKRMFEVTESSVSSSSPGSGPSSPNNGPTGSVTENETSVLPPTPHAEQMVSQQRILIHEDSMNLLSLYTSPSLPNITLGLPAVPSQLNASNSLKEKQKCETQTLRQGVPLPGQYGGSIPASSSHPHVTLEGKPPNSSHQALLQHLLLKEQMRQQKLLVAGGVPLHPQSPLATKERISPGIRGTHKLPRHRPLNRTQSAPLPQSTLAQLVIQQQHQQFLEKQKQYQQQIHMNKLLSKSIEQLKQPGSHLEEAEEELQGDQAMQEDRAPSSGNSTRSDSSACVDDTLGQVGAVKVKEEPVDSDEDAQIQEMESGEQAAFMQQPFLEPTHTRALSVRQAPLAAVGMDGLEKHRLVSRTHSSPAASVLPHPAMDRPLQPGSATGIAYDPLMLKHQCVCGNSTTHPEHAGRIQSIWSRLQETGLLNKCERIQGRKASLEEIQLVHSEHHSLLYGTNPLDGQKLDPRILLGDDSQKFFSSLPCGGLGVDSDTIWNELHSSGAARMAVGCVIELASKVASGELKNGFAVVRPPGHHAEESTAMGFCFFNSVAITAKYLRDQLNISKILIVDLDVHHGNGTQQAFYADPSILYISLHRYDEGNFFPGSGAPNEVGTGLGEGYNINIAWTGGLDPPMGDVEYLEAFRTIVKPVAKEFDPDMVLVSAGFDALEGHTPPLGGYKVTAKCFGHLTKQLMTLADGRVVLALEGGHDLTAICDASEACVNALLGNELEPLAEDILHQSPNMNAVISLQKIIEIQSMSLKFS
Data set [9] in a line: Stability in human pooled liver microsomes assessed as parent compound remaining measured at 60 mins in presence of NADPH by LC-MS/MS analysis. Type of data set: ADME, Microsome. The settings on record: microsomes, 1 h.

Chain of Histone deacetylase 3 (O15379 whole entry): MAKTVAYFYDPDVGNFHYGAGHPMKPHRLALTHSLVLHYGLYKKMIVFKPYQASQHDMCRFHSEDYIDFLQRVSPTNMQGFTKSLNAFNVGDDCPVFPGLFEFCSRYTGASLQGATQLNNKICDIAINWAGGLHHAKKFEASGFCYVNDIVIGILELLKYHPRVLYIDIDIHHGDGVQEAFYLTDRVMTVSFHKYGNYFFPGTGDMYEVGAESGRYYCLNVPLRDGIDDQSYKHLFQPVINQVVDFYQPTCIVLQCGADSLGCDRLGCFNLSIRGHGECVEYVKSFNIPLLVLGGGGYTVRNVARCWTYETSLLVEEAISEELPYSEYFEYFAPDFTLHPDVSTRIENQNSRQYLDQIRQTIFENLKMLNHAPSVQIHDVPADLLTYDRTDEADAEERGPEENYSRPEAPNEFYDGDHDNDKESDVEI
Chain of Histone deacetylase 4 (P56524 whole entry): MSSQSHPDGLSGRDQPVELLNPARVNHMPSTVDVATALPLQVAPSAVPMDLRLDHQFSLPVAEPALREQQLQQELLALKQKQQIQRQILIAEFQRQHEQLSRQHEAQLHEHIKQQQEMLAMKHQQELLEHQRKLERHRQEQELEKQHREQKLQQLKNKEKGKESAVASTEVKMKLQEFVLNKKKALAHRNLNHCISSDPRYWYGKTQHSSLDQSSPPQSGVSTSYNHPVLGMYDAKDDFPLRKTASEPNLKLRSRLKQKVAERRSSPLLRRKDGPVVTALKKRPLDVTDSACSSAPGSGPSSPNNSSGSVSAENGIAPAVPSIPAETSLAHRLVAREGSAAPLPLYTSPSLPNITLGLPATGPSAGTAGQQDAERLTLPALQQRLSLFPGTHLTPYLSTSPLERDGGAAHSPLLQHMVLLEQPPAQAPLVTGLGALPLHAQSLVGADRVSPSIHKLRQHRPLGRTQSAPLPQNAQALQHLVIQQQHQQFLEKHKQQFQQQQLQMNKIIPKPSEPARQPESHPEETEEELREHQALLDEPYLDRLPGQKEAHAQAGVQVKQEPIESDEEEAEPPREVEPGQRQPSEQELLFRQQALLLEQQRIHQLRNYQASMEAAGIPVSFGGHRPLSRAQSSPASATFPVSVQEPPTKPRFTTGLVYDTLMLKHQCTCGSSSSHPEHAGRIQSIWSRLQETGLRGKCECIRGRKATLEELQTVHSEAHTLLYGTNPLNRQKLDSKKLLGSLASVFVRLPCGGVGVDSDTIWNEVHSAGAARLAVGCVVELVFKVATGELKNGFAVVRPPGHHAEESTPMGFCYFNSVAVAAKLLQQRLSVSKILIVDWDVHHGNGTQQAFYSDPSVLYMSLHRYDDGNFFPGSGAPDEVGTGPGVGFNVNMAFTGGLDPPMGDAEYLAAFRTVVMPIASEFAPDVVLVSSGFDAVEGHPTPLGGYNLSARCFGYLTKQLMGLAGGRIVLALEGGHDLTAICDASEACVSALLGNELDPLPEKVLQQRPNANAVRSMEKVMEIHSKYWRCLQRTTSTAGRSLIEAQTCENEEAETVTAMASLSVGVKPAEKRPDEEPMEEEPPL
Description for Histone deacetylase 7: Inhibition of recombinant human HDAC7 using Boc-Lys(TFA)-AMC as substrate preincubated for 10 mins followed by substrate addition and measured after 30 mins by fluorescence-based assay
Description for Histone deacetylase 8: Inhibition of recombinant human HDAC8 using Boc-Lys(TFA)-AMC as substrate preincubated for 10 mins followed by substrate addition and measured after 30 mins by fluorescence-based assay

In the case of `O=C(NO)c1ccc(CN2CCCc3cc(Cl)ccc32)cc1`, the fold change (FC) in data set [1] and in data set [5] was 1 each time. Besides, the Activity in [2] is 125%. The values for the half-life in data set [3], in data set [4] and in [6] were less than 30 min, less than 30 min and 31.9 min, respectively. In addition, in data set [7], the remaining at 1 h came to 27.3%. The IC50 turned out to be 1480 nM on Histone deacetylase 5; 282 nM at Histone deacetylase 2; 2140 nM on Histone deacetylase 4; 3.06 µM at Histone deacetylase 8; 511 nM at Histone deacetylase 7; 1270 nM on Histone deacetylase 3. The concentration for half-maximal inhibition (IC50) on Histone deacetylase 9 turned out to be 3.4 µM. The t1/2 in data set [8] was 483 min. For the same molecule, the Stabilty in [9] was 42.6%.
